PubChem BioAssay AID790 (SRMLSC, 2007)
Active and inactive are the calls of the source. No rule for the calls is given here.

Columns and labels:
[1] = growth inhibition of yeast vps1Δ mutant, dose response, S. cerevisiae, background strain comparison (AID 790); conditions: S. cerevisiae vps1Δ mutant growth inhibition; for IC50: measured here: background strain growth inhibition; for growth inhibition: at 25 µM (top of the series)
[2] = test system: S. cerevisiae vps1Δ mutant growth inhibition; assay: as above

**Q.** For `CCOC(=O)c1c(-n2c(C)cc(C=C3C(=O)NC(=S)NC3=O)c2C)sc2c1CCCC2`, which IC50 [1] is on record?
**A.** The IC50 was 11.5 µM.

**Q.** Which results are given for `CCOC(=O)C1CCN(Cc2cnc(Oc3ccc(Cl)cc3C)s2)CC1`?
**A.** IC50 [1]: > 10 µM; IC50 [2]: > 10 µM (inactive)

**Q.** With `O=C(CC(=O)c1cc(Cl)ccc1O)c1ccccc1` as the compound, how does the IC50 [1] read?
**A.** The IC50 was 12.7 µM.

**Q.** And the IC50 [2]?
**A.** The IC50 was 2.11 µM.

**Q.** Which IC50 [1] does the source give for `CC(C)(C)n1nnnc1CN(Cc1cccnc1)Cc1ccccc1Cl` here?
**A.** Its IC50 is > 10 µM.

**Q.** What about the IC50 [2] of the same compound?
**A.** Its IC50 is > 10 µM (inactive).

**Q.** Which results are given for `O=S(=O)(NCC(c1cccnc1)N1CCN(c2ccccc2)CC1)c1cccs1` (stereo unspecified)?
**A.** IC50 [1]: > 10 µM; IC50 [2]: 20.5 µM

**Q.** Which IC50 [1] does the source give for `CC1CCCCN1CCNC(=O)Cn1nc(-c2ccccc2)ccc1=O` (stereo unspecified) here?
**A.** The IC50 was > 10 µM.

**Q.** What about the IC50 [2] of the same compound?
**A.** Its IC50 is > 10 µM (inactive).

**Q.** Which results are given for `Cc1cc(Cl)cc(C)c1OCCCCN1CCOCC1`?
**A.** IC50 [1]: > 10 µM; IC50 [2]: > 10 µM (inactive)

**Q.** With `O=C(Nc1cccc(Cl)c1)N1CCN(C/C=C/c2ccccc2)CC1` as the compound, how does the IC50 [1] read?
**A.** The IC50 was > 10 µM.

**Q.** And the IC50 [2]?
**A.** Its IC50 is > 10 µM (inactive).

**Q.** For `COc1ccc(C2C3=C(CCCC3=O)Nc3nc(-c4cc(OC)c(OC)c(OC)c4)nn32)cc1OC` (stereo unspecified), which IC50 [1] is on record?
**A.** Its IC50 is > 10 µM.

**Q.** What about the IC50 [2] of the same compound?
**A.** The IC50 was > 10 µM (inactive).

**Q.** For `O=C(Nc1nnc(-c2ccc(Cl)cc2)o1)c1ccccc1Br`, which IC50 [1] is on record?
**A.** Its IC50 is 13.1 µM.

**Q.** What about the IC50 [2] of the same compound?
**A.** Its IC50 is 2.37 µM.

**Q.** With `COc1ccc(CN(C(=O)Cc2cccs2)C(C(=O)NC2CCCC2)c2ccncc2)cc1` (stereo unspecified) as the compound, how does the IC50 [1] read?
**A.** The IC50 was > 10 µM.

**Q.** And the IC50 [2]?
**A.** Its IC50 is > 10 µM (inactive).

**Q.** Which IC50 [1] does the source give for `Cc1ccc(SC(C)C(=O)Nc2ncn[nH]2)cc1` (stereo unspecified) here?
**A.** Its IC50 is > 10 µM.

**Q.** And the IC50 [2]?
**A.** Its IC50 is > 10 µM (inactive).

**Q.** With `O=S(=O)(Cc1ccccc1Cl)N1CCN(Cc2ccc3c(c2)OCO3)CC1` as the compound, how does the IC50 [2] read?
**A.** The IC50 was > 10 µM (inactive).

**Q.** Which IC50 [1] does the source give for `O=C(Nc1cc(C(F)(F)F)ccc1-n1cncn1)c1ccc(-c2ccccc2)cc1` here?
**A.** The IC50 was > 10 µM.

**Q.** And the IC50 [2]?
**A.** Its IC50 is > 10 µM (inactive).

**Q.** With `Cc1cc(C)c2c(c1)/C(=C/C(=O)c1ccc(Br)s1)C(=O)N2` as the compound, how does the IC50 [1] read?
**A.** Its IC50 is 1.42 µM.

**Q.** What about the IC50 [2] of the same compound?
**A.** The IC50 was 3.71 µM (inactive).

**Q.** With `CC(=O)Nc1ccccc1NS(=O)(=O)c1ccc(Cl)cc1` as the compound, how does the IC50 [1] read?
**A.** Its IC50 is > 10 µM.

**Q.** And the IC50 [2]?
**A.** The IC50 was > 10 µM (inactive).

**Q.** For `O=C(NCc1ccco1)C(c1cccs1)N(C(=O)Cc1cccs1)c1ccccc1` (stereo unspecified), which IC50 [1] is on record?
**A.** Its IC50 is > 10 µM.

**Q.** What about the IC50 [2] of the same compound?
**A.** The IC50 was > 10 µM (inactive).

**Q.** For `NC(=O)c1c(NC(=O)CN2C(=O)CCC2=O)sc2c1CCCCC2`, which IC50 [1] is on record?
**A.** Its IC50 is > 10 µM.

**Q.** What about the IC50 [2] of the same compound?
**A.** Its IC50 is > 10 µM (inactive).

**Q.** With `CCOC(=O)c1ccc(NC(=O)c2ccc(CN3CCOCC3)cc2)cc1` as the compound, how does the IC50 [1] read?
**A.** Its IC50 is > 10 µM.

**Q.** And the IC50 [2]?
**A.** The IC50 was > 10 µM (inactive).

**Q.** Which IC50 [1] does the source give for `COC(=O)c1ccc(NC(=O)c2cn(-c3ccccc3)nc2-c2ccncc2)cc1` here?
**A.** Its IC50 is > 10 µM.

**Q.** What about the IC50 [2] of the same compound?
**A.** Its IC50 is > 10 µM (inactive).

**Q.** For `O=C(OCn1ncc(Br)c(Br)c1=O)c1c(F)cccc1F`, which IC50 [2] is on record?
**A.** The IC50 was 16.2 µM.

**Q.** Which IC50 [2] does the source give for `CC(C)c1ccc(C(=O)CSc2n[nH]c(-c3ccncc3)n2)cc1` here?
**A.** The IC50 was > 10 µM (inactive).

**Q.** With `CC12CCC(c3c(C(=O)Nc4nccs4)nn(-c4ccccc4)c31)C2(C)C` (stereo unspecified) as the compound, how does the IC50 [2] read?
**A.** The IC50 was > 10 µM (inactive).

**Q.** Which IC50 [2] does the source give for `CC(c1nnc(SCn2nnc3ccccc3c2=O)n1-c1ccc(Cl)cc1)N(C)C` (stereo unspecified) here?
**A.** Its IC50 is 5.55 µM.

**Q.** Which IC50 [2] does the source give for `O=S1(=O)C=C(Sc2nc3ccccc3s2)c2ccccc21` here?
**A.** Its IC50 is > 10 µM (inactive).

**Q.** With `CCCCCCOc1ccc(CN2CCN(CCO)CC2)cc1` as the compound, how does the IC50 [2] read?
**A.** Its IC50 is > 10 µM (inactive).

**Q.** Which IC50 [2] does the source give for `O=C1C=C(c2ccccc2)C(=O)N1Nc1ccccc1` here?
**A.** Its IC50 is 22.5 µM.

**Q.** With `N#Cc1ccccc1Cn1cc(C(=O)c2cccs2)c2ccccc21` as the compound, how does the IC50 [2] read?
**A.** The IC50 was > 10 µM (inactive).

**Q.** For `N=c1c2c(-c3ccccc3)c(-c3ccccc3)n(Cc3ccco3)c2ncn1Cc1ccccc1`, which IC50 [2] is on record?
**A.** The IC50 was > 10 µM (inactive).

**Q.** Which IC50 [2] does the source give for `O=C(C1CCCN(S(=O)(=O)c2ccc(Cl)cc2)C1)N(Cc1cccs1)C1CC1` (stereo unspecified) here?
**A.** Its IC50 is 9.94 µM.

**Q.** For `OC(c1ccc(Cl)cc1Cl)C(Cc1cccnc1)n1cncn1` (stereo unspecified), which IC50 [1] is on record?
**A.** The IC50 was > 10 µM.

**Q.** Which growth inhibition [1] does the source give for `Cc1nn(Cc2cccc(C(=O)NC(C)c3ccc(C(C)(C)C)cc3)c2)c(C)c1[N+](=O)[O-]` (stereo unspecified) here?
**A.** The growth inhibition was 23.6% (inactive).

**Q.** And the IC50 [1]?
**A.** The IC50 was > 10 µM.

**Q.** What does the source list for `Cc1cccc(N2CCN(CC(=O)Nc3nccs3)CC2)c1C`?
**A.** growth inhibition [1]: 31.3% (inactive); IC50 [1]: > 10 µM

**Q.** With `Cc1[nH]nc(N=CC2=C(O)CC(C)(C)CC2=O)c1-c1ccc(Cl)cc1` as the compound, how does the IC50 [2] read?
**A.** Its IC50 is > 10 µM (inactive).

**Q.** With `O=C(CN1CCN(c2ccccn2)CC1)Nc1ccc(Oc2ccccc2)cc1` as the compound, how does the IC50 [2] read?
**A.** Its IC50 is > 10 µM (inactive).

**Q.** Which IC50 [2] does the source give for `CC1CCC(C(C)C)C(OCC(O)CN2CCN(Cc3ccccc3)CC2)C1` (stereo unspecified) here?
**A.** The IC50 was > 10 µM (inactive).

**Q.** With `COc1ccc(OCCSc2nnc3sc4ccccc4n23)cc1` as the compound, how does the IC50 [2] read?
**A.** The IC50 was > 10 µM (inactive).

**Q.** For `C=C(C)C1CC=C(CN2CC(C)OC(C)C2)CC1` (stereo unspecified), which IC50 [1] is on record?
**A.** Its IC50 is > 10 µM.

**Q.** Which IC50 [2] does the source give for `CCOc1ccc(NC(=O)N(C2CCCCC2)C(C)c2cccnc2)cc1` (stereo unspecified) here?
**A.** Its IC50 is 15.6 µM.

**Q.** For `O=C(NCC(c1cccnc1)N1CCN(c2ccc(F)cc2)CC1)OCc1ccccc1` (stereo unspecified), which IC50 [2] is on record?
**A.** Its IC50 is 22.4 µM.

**Q.** With `O=C(Nc1nnc(-c2ccc3c(c2)CCCC3)o1)c1ccccc1` as the compound, how does the IC50 [2] read?
**A.** Its IC50 is 0.8 µM.

**Q.** With `N[C@@H](Cc1c[nH]c2ccccc12)c1nnc(SCc2ccc(Cl)cc2)o1` as the compound, how does the IC50 [1] read?
**A.** The IC50 was 20.4 µM.

**Q.** Which IC50 [2] does the source give for `O=[N+]([O-])c1cc(Cl)cc(/C=N\Nc2ccccn2)c1O` here?
**A.** The IC50 was 3.42 µM.

**Q.** For `O=C(NCC1COc2ccccc2O1)c1ccc(Cl)cc1` (stereo unspecified), which IC50 [2] is on record?
**A.** The IC50 was 3.31 µM.

**Q.** With `O=C(Nc1nnc(-c2cccs2)o1)c1cccc(C(F)(F)F)c1` as the compound, how does the IC50 [2] read?
**A.** The IC50 was 1.67 µM (inactive).

**Q.** With `CCCCC(c1nnnn1Cc1ccco1)N1CCN(c2nc3ccccc3s2)CC1` (stereo unspecified) as the compound, how does the IC50 [1] read?
**A.** Its IC50 is 3.9 µM.

**Q.** Which IC50 [2] does the source give for `O=C(OCn1ncc(Br)c(Br)c1=O)c1ccccc1Cl` here?
**A.** The IC50 was 6.69 µM.

**Q.** Which IC50 [2] does the source give for `CC(Sc1ccsc1[N+](=O)[O-])C(=O)NCCc1ccc(Cl)cc1` (stereo unspecified) here?
**A.** The IC50 was > 10 µM (inactive).

**Q.** With `CC1CCN(S(=O)(=O)c2ccc(NC(=O)CCN3C(=O)c4ccccc4C3=O)cc2)CC1` as the compound, how does the IC50 [2] read?
**A.** Its IC50 is > 10 µM (inactive).

**Q.** With `Cc1ccc(C(=O)Nc2ccc(Cc3ccncc3)cc2)cc1[N+](=O)[O-]` as the compound, how does the IC50 [2] read?
**A.** The IC50 was 23.6 µM.

**Q.** With `O=S1(=O)C=C(Sc2nnc(-c3ccccc3)o2)c2ccccc21` as the compound, how does the IC50 [2] read?
**A.** The IC50 was 24.2 µM.
